Results: patent publication US3949090A, “Methods and compositions for improving feed efficiency in ruminants using dithiooxamide” (SmithKline Corporation, priority 1974, dated 1976)
Like-named read-outs stand apart in the source and are kept apart here.

Experiments:
[1] = system: Microbial Deaminase (strained rumen fluid); experiment: In vitro effects upon amino acid deamination (rumen fluid, starch, urea; 5 hours); format: cell-based
Procedure: The in vitro fermentation system contained 50 ml. strained rumen fluid, 8 mM urea, 1 g. starch, 1.8 mM of each of 10 essential amino acids (threonine, valine, methionine, isoleucine, leucine, phenylalanine, tryptophan, lysine and arginine) and 0 to 100 ppm dithiooxamide. Flasks were incubated under a CO2 atmosphere for 5 hours with total amino acids assayed prior to and at the end of the fermentation by the method of Borchers [Anal. Chem., 31, (7):1179]. Percent apparent inhibition of deamination in treated flasks was calculated relative to control flasks without added dithiooxamide. Apparent inhibition of deamination in excess of 100% may be observed because of the liberation of amino acids from proteinaceous materials contained in rumen fluid.
Inhibition of deamination (%) =
Control deamination (%) - Treated deamination (%)
Control deamination (%)
^1 In vitro fermentation system contained 50 ml. strained rumen fluid
1 g. starch, 8 mM urea and 1.8 mM of each of ten essential amino acids.
Flasks were incubated under a CO2 atmosphere for five hours.

[2] = system: Microbial Deaminase (strained rumen fluid); experiment: In vitro microbial deaminase inhibition (rumen fluid, alfalfa hay, grain mixture; 4 hours); format: cell-based; conditions: for MDI (%): 240 min
Procedure: (§1) The in vitro fermentation system contained 75 ml. strained rumen fluid, 200 mg, alfalfa hay, 800 mg. of a crude protein grain mixture, 0.8 to 1.6 mM of each of 10 essential amino acids (threonine, valine, methionine, isoleucine, leucine, phelylalanine, tryptophan, lysine and arginine), and 0 to 50 ppm dithiooxamide. Flasks were incubated for 4 hours with effects upon amino acid deamination assessed as described for the previous system. Using standard chromatographic techniques, effects upon methanogenesis and upon the pattern of volatile fatty acid production were determined.
(§2) ^1 In vitro fermentation system contained 75 ml. strained rumen fluid
(§3) 200 mg. alfalfa hay, 800 mg. grain mixture (16% crude protein) and 1.6 mM
(§4) of each of ten essential amino acids. Flasks were incubated for four
(§5) 200 mg. alfalfa hay, 800 mg. grain mixture (16% crude protein) and 0.8 mM

[3] = system: methanogenesis (strained rumen fluid); experiment: In vitro effects upon methanogenesis; format: cell-based
Procedure: as §1, §2, §3, §4, §5

[4] = system: volatile fatty acid production (strained rumen fluid); experiment: In vitro volatile fatty acid production; format: cell-based
Procedure: as §1, §2, §3, §4, §5

[5] = system: rumen microbial deamination; experiment: In vivo effects upon amino acid deamination in rumen fistulated cattle; conditions: for Quantity of amino acids in the rumen: per rumen
Procedure: Rumen fistulated cattle were fed a pelleted 60% concentrate diet. To conduct the test, animals received ruminal doses of a mixture of free amino acids to provide 338 mMoles of total free amino acids (threonine 4.5 g., methionine 6.0 g., isoleucine 5.0 g., leucine 5.0 g., phenylalanine 6.5 g., lysine 7.5 g., histidine 8.5 g.), 50 g. of a soluble rumen marker, polyethylene glycol (PEG) and 0 to 4 g. dithiooxamide. Total amino acid concentration was determined by the procedure of Borchers [Anal. Chem., 31 (7): 1179]. Activity was assessed as changes, with respect to time, of the quantity of total free amino acids in the rumen. Inhibition of rumen microbial deamination results in a greater quantity of free amino acids in the rumen.
^1 Polyethylene glycol was used as a marker to estimate rumen volume
and correct for changes in amino acid concentration due to changes in
rumen volume during the six hour experiment.
^2 mMoles of amino acid per rumen.

[6] = system: methanogenesis; experiment: In vivo effects upon methanogenesis in cattle; conditions: for Methane Inhibition: 360 kg cattle, at least 7 days
Description: Cattle were fed 5 to 7 kg./day of a 70% concentrate ration which was medicated to supply 0 to 2 g. of dithiooxamide per animal daily. After feeding medicated rations for at least 7 days, gas samples were obtained by rumen puncture for chromatographic assay of methane.
^1 360 Kg. Cattle fed either 5, 6 or 7 kg./day.

[7] = system: animals; experiment: Toxicity statement (animals); conditions: when used as described
[8] = Table III, varying concentrations of cobalt and copper

Structure (SMILES): NC(=S)C(N)=S [Dithiooxamide, dithiooxamide]
- inhibition at 2.5 ppm ([1]; 2.5 ppm dithiooxamide, 5 h, 1 replication, read-out: MDI (%)): 0%
- inhibition at 5 ppm ([1]; 5 ppm dithiooxamide, 5 h, 4 replications, read-out: MDI (%)): 35%
- inhibition at 7.5 ppm ([1]; 7.5 ppm dithiooxamide, 5 h, 1 replication, read-out: MDI (%)): 71%
- inhibition at 10 ppm ([1]; 10 ppm dithiooxamide, 5 h, 4 replications, read-out: MDI (%)): 57%
- inhibition at 25 ppm ([1]; 25 ppm dithiooxamide, 5 h, 4 replications, read-out: MDI (%)): 62%
- inhibition at 50 ppm ([1]; 50 ppm dithiooxamide, 5 h, 2 replications, read-out: MDI (%)): 84%
- inhibition at 75 ppm ([1]; 75 ppm dithiooxamide, 5 h, 1 replication, read-out: MDI (%)): 100%
- inhibition at 100 ppm ([1]; 100 ppm dithiooxamide, 5 h, 1 replication, read-out: MDI (%)): 117%
- inhibition of microbial deamination of amino acids (in words) ([1]; Table I, 7.5 to 100 ppm): effective inhibitor of microbial deamination of amino acids over a wide concentration range
- inhibition at 5 ppm ([2]; 4 h, Table II, 5 ppm dithiooxamide, 4 h, read-out: MDI (%)): 6%
- inhibition at 10 ppm ([2]; 4 h, Table II, 10 ppm dithiooxamide, 4 h, read-out: MDI (%)): 68%
- inhibition at 25 ppm ([2]; 4 h, Table II, 25 ppm dithiooxamide, 4 h, read-out: MDI (%)): 65%
- inhibition at 50 ppm ([2]; 4 h, Table II, 50 ppm dithiooxamide, 4 h, read-out: MDI (%)): 94%
- inhibition at 25 ppm ([2]; 4 h, Table III, dithiooxamide 25 ppm, no added cobalt or copper, read-out: MDI (%)): 78%
- inhibition of microbial deamination of amino acids (in words) ([2]; Table II): effective inhibitor of microbial deamination of amino acids
- MDI (%) ([2]; Table III, dithiooxamide 25 ppm + cobalt sulfate .013 ppm): 81%
- MDI (%) ([2]; Table III, dithiooxamide 25 ppm + copper sulfate .333 ppm): 90%
- Deaminase inhibition on adding cobalt and copper (in words) [2, 8]: not affected by adding varying concentrations of cobalt and copper
- methane production (in words) ([3]; Table II): would suppress methane production
- inhibition at 5 ppm ([3]; Table II, 5 ppm dithiooxamide, 4 h, read-out: Methane Inhibition (%)): 12%
- inhibition at 10 ppm ([3]; Table II, 10 ppm dithiooxamide, 4 h, read-out: Methane Inhibition (%)): 88%
- inhibition at 25 ppm ([3]; Table II, 25 ppm dithiooxamide, 4 h, read-out: Methane Inhibition (%)): 96%
- inhibition at 50 ppm ([3]; Table II, 50 ppm dithiooxamide, 4 h, read-out: Methane Inhibition (%)): 99%
- Methane Inhibition (%) ([3]; Table III, dithiooxamide 25 ppm + cobalt sulfate .066 ppm): 93%
- inhibition at 25 ppm ([3]; Table III, dithiooxamide 25 ppm, no added cobalt or copper, read-out: Methane Inhibition (%)): 92%
- methane inhibition on adding cobalt and copper (in words) [3, 8]: not affected by adding varying concentrations of cobalt and copper
- pattern of volatile fatty acids (in words) ([4]; Table II): increased molar percentages of propionate and butyrate at the expense of acetate
- volatile fatty acid carbon (in words) ([4]; Table II): slight decrease in volatile fatty acid carbon
- Volatile Fatty Acids (molar distribution, %): Propionate ([4]; Table II, 5 ppm dithiooxamide, 4 h, control 9): 10%
- Volatile Fatty Acids (molar distribution, %): Butyrate ([4]; Table II, 5 ppm dithiooxamide, 4 h, control 22): 24%
- Volatile Fatty Acids (molar distribution, %): Acetate ([4]; Table II, 5 ppm dithiooxamide, 4 h, control 69): 66%
- Volatile Fatty Acid Carbon ([4]; Table II, 5 ppm dithiooxamide, 4 h, control 128): 127 μ moles/ml.
- Volatile Fatty Acids (molar distribution, %): Propionate ([4]; Table II, 10 ppm dithiooxamide, 4 h, control 9): 15%
- Volatile Fatty Acids (molar distribution, %): Butyrate ([4]; Table II, 10 ppm dithiooxamide, 4 h, control 22): 36%
- Volatile Fatty Acids (molar distribution, %): Acetate ([4]; Table II, 10 ppm dithiooxamide, 4 h, control 69): 49%
- Volatile Fatty Acid Carbon ([4]; Table II, 10 ppm dithiooxamide, 4 h, control 128): 108 μ moles/ml.
- Volatile Fatty Acids (molar distribution, %): Propionate ([4]; Table II, 25 ppm dithiooxamide, 4 h, control 9): 15%
- Volatile Fatty Acids (molar distribution, %): Butyrate ([4]; Table II, 25 ppm dithiooxamide, 4 h, control 22): 36%
- Volatile Fatty Acids (molar distribution, %): Acetate ([4]; Table II, 25 ppm dithiooxamide, 4 h, control 69): 49%
- Volatile Fatty Acid Carbon ([4]; Table II, 25 ppm dithiooxamide, 4 h, control 128): 108 μ moles/ml.
- Volatile Fatty Acids (molar distribution, %): Propionate ([4]; Table II, 50 ppm dithiooxamide, 4 h, control 9): 15%
- Volatile Fatty Acids (molar distribution, %): Butyrate ([4]; Table II, 50 ppm dithiooxamide, 4 h, control 22): 38%
- Volatile Fatty Acids (molar distribution, %): Acetate ([4]; Table II, 50 ppm dithiooxamide, 4 h, control 69): 47%
- Volatile Fatty Acid Carbon ([4]; Table II, 50 ppm dithiooxamide, 4 h, control 128): 102 μ moles/ml.
- patterns of volatile fatty acid production (in words) ([4]; Table III): Alterations in patterns of volatile fatty acid production were again observed
- total volatile fatty acid carbon production (in words) ([4]; Table III): no effects on total volatile fatty acid carbon production
- Volatile Fatty Acids (molar distribution, %): Propionate ([4]; Table III, dithiooxamide 25 ppm + cobalt sulfate .013 ppm, control 15): 20%
- Volatile Fatty Acids (molar distribution, %): Butyrate ([4]; Table III, dithiooxamide 25 ppm + cobalt sulfate .013 ppm, control 21): 39%
- Volatile Fatty Acids (molar distribution, %): Acetate ([4]; Table III, dithiooxamide 25 ppm + cobalt sulfate .013 ppm, control 64): 41%
- Volatile Fatty Acid Carbon ([4]; Table III, dithiooxamide 25 ppm + cobalt sulfate .013 ppm, control 125): 127 μ moles/ml.
- Volatile Fatty Acids (molar distribution, %): Propionate ([4]; Table III, dithiooxamide 25 ppm + cobalt sulfate .066 ppm, control 15): 20%
- Volatile Fatty Acids (molar distribution, %): Butyrate ([4]; Table III, dithiooxamide 25 ppm + cobalt sulfate .066 ppm, control 21): 37%
- Volatile Fatty Acids (molar distribution, %): Acetate ([4]; Table III, dithiooxamide 25 ppm + cobalt sulfate .066 ppm, control 64): 43%
- Volatile Fatty Acid Carbon ([4]; Table III, dithiooxamide 25 ppm + cobalt sulfate .066 ppm, control 125): 133 μ moles/ml.
- Volatile Fatty Acids (molar distribution, %): Propionate ([4]; Table III, dithiooxamide 25 ppm + copper sulfate .067 ppm, control 15): 21%
- Volatile Fatty Acids (molar distribution, %): Butyrate ([4]; Table III, dithiooxamide 25 ppm + copper sulfate .067 ppm, control 21): 41%
- Volatile Fatty Acids (molar distribution, %): Acetate ([4]; Table III, dithiooxamide 25 ppm + copper sulfate .067 ppm, control 64): 38%
- Volatile Fatty Acid Carbon ([4]; Table III, dithiooxamide 25 ppm + copper sulfate .067 ppm, control 125): 114 μ moles/ml.
- Volatile Fatty Acids (molar distribution, %): Propionate ([4]; Table III, dithiooxamide 25 ppm + copper sulfate .333 ppm, control 15): 21%
- Volatile Fatty Acids (molar distribution, %): Butyrate ([4]; Table III, dithiooxamide 25 ppm + copper sulfate .333 ppm, control 21): 38%
- Volatile Fatty Acids (molar distribution, %): Acetate ([4]; Table III, dithiooxamide 25 ppm + copper sulfate .333 ppm, control 64): 41%
- Volatile Fatty Acid Carbon ([4]; Table III, dithiooxamide 25 ppm + copper sulfate .333 ppm, control 125): 132 μ moles/ml.
- Volatile Fatty Acids (molar distribution, %): Propionate ([4]; Table III, dithiooxamide 25 ppm, no added cobalt or copper, control 15): 21%
- Volatile Fatty Acids (molar distribution, %): Butyrate ([4]; Table III, dithiooxamide 25 ppm, no added cobalt or copper, control 21): 40%
- Volatile Fatty Acids (molar distribution, %): Acetate ([4]; Table III, dithiooxamide 25 ppm, no added cobalt or copper, control 64): 39%
- Volatile Fatty Acid Carbon ([4]; Table III, dithiooxamide 25 ppm, no added cobalt or copper, control 125): 119 μ moles/ml.
- Quantity of amino acids in the rumen ([5]; 0.5 g dithiooxamide ruminal dose, 0 h after dosing, control 338): 338 mmol
- Quantity of amino acids in the rumen ([5]; 0.5 g dithiooxamide ruminal dose, 3 h after dosing, control 152): 192 mmol
- Quantity of amino acids in the rumen ([5]; 0.5 g dithiooxamide ruminal dose, 6 h after dosing, control 47): 78 mmol
- Quantity of amino acids in the rumen ([5]; 1.0 g dithiooxamide ruminal dose, 0 h after dosing, control 338): 338 mmol
- Quantity of amino acids in the rumen ([5]; 1.0 g dithiooxamide ruminal dose, 3 h after dosing, control 152): 198 mmol
- Quantity of amino acids in the rumen ([5]; 1.0 g dithiooxamide ruminal dose, 6 h after dosing, control 47): 162 mmol
- Quantity of amino acids in the rumen ([5]; 2.0 g dithiooxamide ruminal dose, 0 h after dosing, control 338): 338 mmol
- Quantity of amino acids in the rumen ([5]; 2.0 g dithiooxamide ruminal dose, 3 h after dosing, control 152): 209 mmol
- Quantity of amino acids in the rumen ([5]; 2.0 g dithiooxamide ruminal dose, 6 h after dosing, control 47): 218 mmol
- Quantity of amino acids in the rumen ([5]; 4.0 g dithiooxamide ruminal dose, 0 h after dosing, control 338): 338 mmol
- Quantity of amino acids in the rumen ([5]; 4.0 g dithiooxamide ruminal dose, 3 h after dosing, control 152): 270 mmol
- Quantity of amino acids in the rumen ([5]; 4.0 g dithiooxamide ruminal dose, 6 h after dosing, control 47): 308 mmol
- prevention of degradation of free amino acids in the rumen (in words) ([5]; Table IV): effective agent in preventing his degradation and increasing the size of the pool of amino acids in the rumen
- Methane Inhibition ([6]; 1.0 g./day dithiooxamide in feed): 51
- Methane Inhibition ([6]; 2.0 g./day dithiooxamide in feed): 85
- Methane Inhibition ([6]; .5 g./day dithiooxamide in feed): 25
- antimethanogenic activity (in words) ([6]; Table V): verified the antimethanogenic activity
- toxicity (in words) [7]: relatively nontoxic
